How the values were obtained:
[1] = test system: grammpositive und grammnegative Kokken; test: in vitro antibacterial activity against cocci; assay type: cell-based; conditions: at the lowest tested concentration (0,01 mcg/ml)
Source text: (§1) Diese neuen Verbindungen zeichnen sich durch ihre wertvollen pharmakologischen Eigenschaften aus: so besitzen sie gemäss den Resultaten in vitro antibiotische, insbesondere antibakterielle Eigenschaften, wie z.B. einerseits gegen grammpositive und grammnegative Kokken, wie Staphylococcus aureus, Streptococcus pyogenes, Streptococcus pneumoniae, Neisseria meningitis, Neisseria gonorhoae (im getesteten Konzentrationsbereich 0,01 bis 8 mcg/ml), andererseits gegen grammnegative Stäbchenbakterien, wie Enterobacteriaceae, Pseudomonas aeruginosa, Haemophilus influenzae (im getesteten Konzentrationsbereich von 0,01 bis […]).

[2] = test system: grammnegative Stäbchenbakterien; test: in vitro antibacterial activity against gram-negative rod bacteria; assay type: cell-based; conditions: at the lowest tested concentration (0,01 mg/ml)
Source text: as §1

COC1C=COC2(C)Oc3c(C)c(O)c4c(c3C2=O)C(=O)C(OC(C)=O)=C(NC(=O)C(C)=CC=CC(C)C(O)C(C)C(O)C(C)C(OC(C)=O)C1C)C4=O (stereo not shown) [3-Acetoxyrifamycin-S]
Hemmwirkung [1]: deutliche Hemmwirkung
Hemmwirkung [2]: deutliche Hemmwirkung

3-Benzoyloxyrifamycin-S [3-Benzoylrifamycin-S]
Hemmwirkung [1]: deutliche Hemmwirkung
Hemmwirkung [2]: deutliche Hemmwirkung

COC1C=COC2(C)Oc3c(C)c(O)c4c(c3C2=O)C(=O)C(Oc2ccccc2)=C(NC(=O)C(C)=CC=CC(C)C(O)C(C)C(O)C(C)C(OC(C)=O)C1C)C4=O (stereo not shown) [3-Phenoxyrifamycin-S]
Hemmwirkung [1]: deutliche Hemmwirkung
Hemmwirkung [2]: deutliche Hemmwirkung

COC1=C2NC(=O)C(C)=CC=CC(C)C(O)C(C)C(O)C(C)C(OC(C)=O)C(C)C(OC)C=COC3(C)Oc4c(C)c(O)c(c(c4C3=O)C1=O)C2=O (stereo not shown) [3-Methoxyrifamycin-S]
Hemmwirkung [1]: deutliche Hemmwirkung
Hemmwirkung [2]: deutliche Hemmwirkung

3-(2-Methoxyäthoxy)-rifamycin-S [3-(2-Methoxyäthyl)-rifamycin-S]
Hemmwirkung [1]: deutliche Hemmwirkung
Hemmwirkung [2]: deutliche Hemmwirkung

— patent EP0023885A1, “Method for the introduction of an oxygen-containing functional group into ansamycines, compounds thus obtained, and pharmaceutical compositions containing them” (CIBA-GEIGY AG, priority 1979, dated 1981)
